Structures are written as SMILES. A value given as a limit tells only on which side of the number the result lay.

Sequence of human TYK2 (JH2domain-pseudokinase) (P29597 556-888): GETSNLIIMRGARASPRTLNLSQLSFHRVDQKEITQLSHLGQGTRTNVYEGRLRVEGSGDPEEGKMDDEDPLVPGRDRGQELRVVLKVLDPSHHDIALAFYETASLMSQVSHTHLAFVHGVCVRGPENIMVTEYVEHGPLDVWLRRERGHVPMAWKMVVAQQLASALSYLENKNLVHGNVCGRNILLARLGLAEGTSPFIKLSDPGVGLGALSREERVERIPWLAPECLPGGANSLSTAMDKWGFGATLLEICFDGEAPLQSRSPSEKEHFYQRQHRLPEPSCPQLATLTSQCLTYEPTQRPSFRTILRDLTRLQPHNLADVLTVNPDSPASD

The target in the assay is human TYK2 (JH2domain-pseudokinase) (Homo sapiens (Human), UniProt P29597). Description: TYK2 JH2 Domain Binding Assay (KINOMEscan, DiscoveRx). As to conditions: 11-point dilution, duplicate. Summed up:
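TYK2 JH2 (G556–D888)–NFkB DBD fusion, DNA-tagged, from HEK293 extracts (<0.1 nM) competed against immobilised biotinylated ligand for 1 h at room temperature, 0.9% DMSO. Bead-retained kinase quantified by qPCR; Kd from 11-point 3-fold series (top 30,000 nM, duplicate), Hill fit with slope −1.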
Usually Kd stands for a measure of binding affinity in units of concentration. On to `COc1c(Nc2cc(NC(=O)C3CC3)nc3[nH]c(C(F)(F)F)nc23)cccc1-c1nnn(C)n1` [I-172, N-(7-((2-methoxy-3-(2-methyl-2H-tetrazol-5-yl)phenyl)amino)-2-(trifluoromethyl)-3H-imidazo[4,5-b]pyridin-5-yl)cyclopropanecarboxamide], for which the Kd is above 10 nM.

`Cc1nc(-c2ccc(Nc3cc(Nc4cnc(C)c(C)n4)nc4[nH]c(C)nc34)c(N(C)S(C)(=O)=O)c2)n(C)n1` [I-173, N-(5-(1,3-dimethyl-1H-1,2,4-triazol-5-yl)-2-((5-((5,6-dimethylpyrazin-2-yl)amino)-2-methyl-3H-imidazo[4,5-b]pyridin-7-yl)amino)phenyl)-N-methylmethanesulfonamide] showed a dissociation constant Kd above 10 nM.

`Cc1nc2c(Nc3ccc(-c4ccn(C)n4)cc3N(C)S(C)(=O)=O)cc(NC(=O)C3CC3)nc2[nH]1` [I-174, N-(2-methyl-7-((4-(1-methyl-1H-pyrazol-3-yl)-2-(N-methyl-methysulfonamido)phenyl)amino)-3H-imidazo[4,5-b]pyridin-5-yl)cyclopropanecarboxamide] returned a Kd of 0.1 to 0.5 nM.

As for `Cc1cn(C)c(-c2ccc(Nc3cc(NC(=O)C4CC4)nc4[nH]c(C(F)F)nc34)c(N(C)S(C)(=O)=O)c2)n1` [I-175, N-(2-(difluoromethyl)-7-((4-(1,4-dimethyl-1H-imidazol-2-yl)-2-(N-methylmethylsulfonamido)phenyl)amino)-3H-imidazo[4,5-b]pyridin-5-yl)cyclopropane-Carboxamide], the Kd is 0.5 to 1 nM.

Take `Cc1cn(C)c(-c2ccc(Nc3cc(NC(=O)C4CC4)nc4[nH]c(C)nc34)c(N(C)S(C)(=O)=O)c2)n1` [I-176, N-(7-((4-(1,4-dimethyl-1H-imidazol-2-yl)-2-(N-methylmethyl-sulfonamido)phenyl)amino)-2-methyl-3H-imidazo[4,5-b]pyridin-5-yl)cyclopropane-carboxamide]: the dissociation constant Kd lay in the range of 0.5 to 1 nM.

Take `Cc1nc2c(Nc3ccccc3S(C)(=O)=O)cc(NC(=O)C3CC3)nc2[nH]1` [I-177, N-(2-methyl-7-((2-(methylsulfonyl)phenyl)amino)-3H-imidazo[4,5-b]pyridin-5-yl)cyclopropanecarboxamide]: the dissociation constant Kd fell in the range of 0.1 to 0.5 nM.

In turn, `CN(c1cc(C(F)F)ccc1Nc1cc(Nc2cccc(C#N)n2)nc2[nH]c(C(F)F)nc12)S(C)(=O)=O` [I-178, N-(2-((5-((6-cyanopyridin-2-yl)amino)-2-(difluoromethyl)-3H-imidazo[4,5-b]pyridin-7-yl)amino)-5-(difluoromethyl)phenyl)-N-methylmethanesulfonamide] displayed a Kd of 0.1 to 0.5 nM.

The molecule `CN(c1ccccc1Nc1cc(Nc2cccc(C#N)n2)nc2[nH]c(C(F)F)nc12)S(=O)(=O)C1CC1` [I-179] displayed a Kd of 0.1 to 0.5 nM.

`Cc1nc2c(Nc3ccccc3N(C)S(=O)(=O)C3CC3)cc(Nc3cccc(C#N)n3)nc2[nH]1` [I-180, N-(2-((5-((6-cyanopyridin-2-yl)amino)-2-methyl-3H-imidazo[4,5-b]pyridin-7-yl)amino)phenyl)-N-methylcyclopropanesulfonamide] displayed a dissociation constant Kd of 0.1 to 0.5 nM.

Molecule `CCS(=O)(=O)N(C)c1ccccc1Nc1cc(Nc2cccc(C#N)n2)nc2[nH]c(C)nc12` [I-181, N-(2-((5-((6-cyanopyridin-2-yl)amino)-2-methyl-3H-imidazo[4,5-b]pyridin-7-yl)amino)phenyl)-N-methylethanesulfonamide] gave a dissociation constant (Kd) of 0.1 to 0.5 nM.

`CN(c1cc(C2CCOCC2)ccc1Nc1cc(NC(=O)C2CC2)nc2[nH]c(C(F)F)nc12)S(C)(=O)=O` [I-182, N-(2-(difluoromethyl)-7-((2-(N-methylmethylsulfonamido)-4-(tetrahydro-2H-pyran-4-yl)phenyl)amino)-3H-imidazo[4,5-b]pyridin-5-yl)cyclopropanecarboxamide] gave a Kd of 0.1 to 0.5 nM.

The molecule `CN(c1cc(C2CC2)ccc1Nc1cc(NC(=O)C2CC2)nc2[nH]c(C(F)F)nc12)S(C)(=O)=O` [I-183, N-(7-((4-cyclopropyl-2-(N-methylmethylsulfonamido)phenyl)amino)-2-(difluoromethyl)-3H-imidazo[4,5-b]pyridin-5-yl)cyclopropanecarboxamide] displayed a Kd of 0.1 to 0.5 nM.

`Cc1nc2c(Nc3ccc(C4CC4)cc3N(C)S(C)(=O)=O)cc(NC(=O)C3CC3)nc2[nH]1` [I-184, N-(7-((4-cyclopropyl-2-(N-methylmethylsulfonamido)phenyl)amino)-2-methyl-3H-imidazo[4,5-b]pyridin-5-yl)cyclopropanecarboxamidee] displayed a dissociation constant Kd of 0.1 to 0.5 nM.

Regarding `Cc1ccc(Nc2cc(Nc3ccc(Cl)cc3S(C)(=O)=O)c3nc(C(F)F)[nH]c3n2)nn1` [I-185, N7-(4-chloro-2-(methylsulfonyl)phenyl)-2-(difluoromethyl)-N5-(6-methylpyridazin-3-yl)-3H-imidazo[4,5-b]pyridine-5,7-diamine], the equilibrium dissociation constant (Kd) was 0.1 to 0.5 nM.

Take `Cc1nc2c(Nc3ccc(Cl)cc3S(C)(=O)=O)cc(Nc3cccc(C#N)n3)nc2[nH]1` [I-186, 6-((7-((4-chloro-2-(methylsulfonyl)phenyl)amino)-2-methyl-3H-imidazo[4,5-b]pyridin-5-yl)amino)picolinonitrile]: the dissociation constant (Kd) was 0.1 to 0.5 nM.

With `Cc1cc(-c2ccc(Nc3cc(NC(=O)C4CC4)nc4[nH]c(C(F)F)nc34)c(N(C)S(C)(=O)=O)c2)nn1C` [I-187, N-(2-(difluoromethyl)-7-((4-(1,5-dimethyl-1H-pyrazol-3-yl)-2-(N-methylmethylsulfonamido)phenyl)amino)-3H-imidazo[4,5-b]pyridin-5-yl)cyclopropanecarboxamide], the Kd fell in the range of 0.1 to 0.5 nM.

The molecule `Cc1nc2c(Nc3ccc(C4CC4)cc3S(C)(=O)=O)cc(NC(=O)C3CC3)nc2[nH]1` [I-188] had a Kd of 0.1 to 0.5 nM.

For the molecule `Cc1ccc(Nc2cc(Nc3ccc(Cl)cc3S(C)(=O)=O)c3nc(C)[nH]c3n2)nn1` [I-189, N7-(4-chloro-2-(methylsulfonyl)phenyl)-2-methyl-N5-(6-methylpyridazin-3-yl)-3H-imidazo[4,5-b]pyridine-5,7-diamine], the dissociation constant Kd was in the range of 0.1 to 0.5 nM.

In turn, `CCS(=O)(=O)N(C)c1ccccc1Nc1cc(Nc2cccc(C#N)n2)nc2[nH]c(C(F)F)nc12` [I-190, N-(2-((5-((6-cyanopyridin-2-yl)amino)-2-(difluoromethyl)-3H-imidazo[4,5-b]pyridin-7-yl)amino)phenyl)-N-methylethanesulfonamide] registered a Kd above 10 nM.

The molecule `CS(=O)(=O)c1cc(Cl)ccc1Nc1cc(Nc2cccc(C#N)n2)nc2[nH]c(C(F)F)nc12` [I-191, 6-((7-((4-chloro-2-(methylsulfonyl)phenyl)amino)-2-(difluoromethyl)-3H-imidazo[4,5-b]pyridin-5-yl)amino)picolinonitrile] displayed a Kd of 0.5 to 1 nM.

Molecule `Cc1nc2c(Nc3ccc(Cl)cc3S(C)(=O)=O)cc(NC(=O)[C@H]3C[C@H]3F)nc2[nH]1` [I-192, (1R,2R)—N-(7-((4-chloro-2-(methylsulfonyl)phenyl)amino)-2-methyl-3H-imidazo[4,5-b]pyridin-5-yl)-2-fluorocyclopropane-1-carboxamide] yielded a Kd of 1 to 10 nM.

For the molecule `Cc1nc2c(Nc3ccc(-c4cc(C)n(C)n4)cc3N(C)S(C)(=O)=O)cc(NC(=O)C3CC3)nc2[nH]1` [I-193, N-(7-((4-(1,5-dimethyl-1H-pyrazol-3-yl)-2-(N-methylmethylsulfonamido)phenyl)amino)-2-methyl-3H-imidazo[4,5-b]pyridin-5-yl)cyclopropanecarboxamide], the Kd is above 10 nM.

Turning to `Cc1nc2c(Nc3ccc(-c4cn(C)nc4C)cc3N(C)S(C)(=O)=O)cc(NC(=O)C3CC3)nc2[nH]1` [I-194, N-(7-((4-(1,3-dimethyl-1H-pyrazol-4-yl)-2-(N-methylmethylsulfonamido)phenyl)amino)-2-methyl-3H-imidazo[4,5-b]pyridin-5-yl)cyclopropanecarboxamide], the Kd was above 10 nM.

`Cc1nc2c(Nc3ccc(C(F)F)cc3N(C)S(C)(=O)=O)cc(Nc3cccc(C#N)n3)nc2[nH]1` [I-195, N-(2-((5-((6-cyanopyridin-2-yl)amino)-2-methyl-3H-imidazo[4,5-b]pyridin-7-yl)amino)-5-(difluoromethyl)phenyl)-N-methylmethanesulfonamide] yielded a dissociation constant Kd of 0.1 to 0.5 nM.

`Cc1nc2c(Nc3ccc(C4CCOCC4)cc3N(C)S(C)(=O)=O)cc(NC(=O)C3CC3)nc2[nH]1` [I-196, N-(2-methyl-7-((2-(N-methylmethylsulfonamido)-4-(tetrahydro-2H-pyran-4-yl)phenyl)amino)-3H-imidazo[4,5-b]pyridin-5-yl)cyclopropanecarboxamide]: the equilibrium dissociation constant (Kd) was 0.5 to 1 nM.

In turn, `Cc1nn(C)cc1-c1ccc(Nc2cc(NC(=O)C3CC3)nc3[nH]c(C(F)F)nc23)c(N(C)S(C)(=O)=O)c1` [I-197, N-(2-(difluoromethyl)-7-((4-(1,3-dimethyl-1H-pyrazol-4-yl)-2-(N-methylmethylsulfonamido)phenyl)amino)-3H-imidazo[4,5-b]pyridin-5-yl)cyclopropanecarboxamide] registered a Kd of 0.1 to 0.5 nM.

`Cc1c(-c2ccc(Nc3cc(NC(=O)C4CC4)nc4[nH]c(C(F)F)nc34)c(N(C)S(C)(=O)=O)c2)cnn1C` [I-198, N N-(2-(difluoromethyl)-7-((4-(1,5-dimethyl-1H-pyrazol-4-yl)-2-(N-methylmethylsulfonamido)phenyl)amino)-3H-imidazo[4,5-b]pyridin-5-yl)cyclopropanecarboxamide]: the Kd is below 0.1 nM.

Molecule `Cc1nc2c(Nc3ccc(-c4cnn(C)c4C)cc3N(C)S(C)(=O)=O)cc(NC(=O)C3CC3)nc2[nH]1` [I-199, N-(7-((4-(1,5-dimethyl-1H-pyrazol-4-yl)-2-(N-methylmethylsulfonamido)phenyl)amino)-2-methyl-3H-imidazo[4,5-b]pyridin-5-yl)cyclopropanecarboxamide] came in with a Kd below 0.1 nM.

In turn, `[2H]C([2H])([2H])N(c1ccccc1Nc1cc(Nc2cc(C)nc(C)n2)nc2[nH]c(C(F)F)nc12)S(C)(=O)=O` [I-200, N-(2-((2-(difluoromethyl)-5-((2,6-dimethylpyrimidin-4-yl)amino)-3H-imidazo[4,5-b]pyridin-7-yl)amino)phenyl)-N-(methyl-d3)methanesulfonamide] yielded a Kd of 0.1 to 0.5 nM.
